Patent publication US10670605B2, “Cysteine reactive probes and uses thereof” (The Scripps Research Institute, priority 2015, dated 2020)
One block for each compound: values may come before it.

How the values were obtained:
Experiment in all cases: Competitive isoTOP-ABPP, cell lysates
Type in all cases: binding
[1] = target: ZNF217 C286 (O75362) (Homo sapiens, UniProt O75362)
[2] = target: T1, MGMT C150 (P16455) (Homo sapiens, UniProt P16455); settings: for isoTOP-ABPP reactivity ratio, P16455_C150: 500 μm, in-vitro_ramos
T1 sequence (P16455 1-207): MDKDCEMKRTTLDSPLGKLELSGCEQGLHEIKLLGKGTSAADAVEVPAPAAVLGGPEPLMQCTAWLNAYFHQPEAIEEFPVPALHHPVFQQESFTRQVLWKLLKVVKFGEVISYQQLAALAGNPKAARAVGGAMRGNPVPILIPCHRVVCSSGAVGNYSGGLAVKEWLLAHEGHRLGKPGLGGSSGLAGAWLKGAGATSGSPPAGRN

[3] = target: SAMHD1 C522 (Q9Y3Z3) (Homo sapiens, UniProt Q9Y3Z3); settings: for isoTOP-ABPP reactivity ratio, Q9Y3Z3_C522: 500 μm
[4] = target: PRMT1 C109 (Q99873) (Homo sapiens, UniProt Q99873); settings: for isoTOP-ABPP reactivity ratio, Q99873_C109: 500 μm; for R value (DMSO/fragment): 250 μM, in vitro
[5] = target: GNB2L1 C182 (P63244) (Homo sapiens, UniProt P63244); settings: for isoTOP-ABPP reactivity ratio, P63244_C182: 500 μm
[6] = target: STAT3 C259 (P40763) (Homo sapiens, UniProt P40763); settings: for isoTOP-ABPP reactivity ratio, P40763_C259: 500 μm, in-vitro_ramos; for R value (DMSO/fragment): 250 μM, in vitro
[7] = target: DCUN1D1 C115 (Q96GG9) (Homo sapiens, UniProt Q96GG9); settings: 500 μm, in-vitro_ramos
[8] = target: T2, PCK2 C306 (Q16822) (Homo sapiens, UniProt Q16822)
T2 sequence (Q16822 33-640): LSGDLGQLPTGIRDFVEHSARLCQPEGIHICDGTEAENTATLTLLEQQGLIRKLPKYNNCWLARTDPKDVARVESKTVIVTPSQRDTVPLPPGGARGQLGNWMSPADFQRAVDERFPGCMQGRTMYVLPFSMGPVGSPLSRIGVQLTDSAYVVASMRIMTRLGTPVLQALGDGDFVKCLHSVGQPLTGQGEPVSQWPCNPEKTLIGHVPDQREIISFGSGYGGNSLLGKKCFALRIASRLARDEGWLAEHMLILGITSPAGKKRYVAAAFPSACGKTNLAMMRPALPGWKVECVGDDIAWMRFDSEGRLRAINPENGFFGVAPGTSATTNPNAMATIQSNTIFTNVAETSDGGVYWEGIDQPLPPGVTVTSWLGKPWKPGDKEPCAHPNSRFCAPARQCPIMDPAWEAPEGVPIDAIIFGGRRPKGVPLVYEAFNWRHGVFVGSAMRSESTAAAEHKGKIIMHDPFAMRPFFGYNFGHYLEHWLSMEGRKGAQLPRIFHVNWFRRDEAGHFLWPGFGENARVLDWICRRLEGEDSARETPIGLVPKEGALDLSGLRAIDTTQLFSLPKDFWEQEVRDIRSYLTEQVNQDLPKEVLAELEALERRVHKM

[9] = target: T3, UCHL3 C95 (P15374) (Homo sapiens, UniProt P15374)
T3 sequence (P15374 1-230): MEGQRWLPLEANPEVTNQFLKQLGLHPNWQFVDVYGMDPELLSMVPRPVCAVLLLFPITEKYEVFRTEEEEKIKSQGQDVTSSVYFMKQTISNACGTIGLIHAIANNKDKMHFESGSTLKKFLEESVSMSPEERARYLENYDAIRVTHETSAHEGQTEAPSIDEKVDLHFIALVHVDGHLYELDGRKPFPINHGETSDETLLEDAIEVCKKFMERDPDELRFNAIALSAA

[10] = target: UBE2L3 C86 (P68036) (Homo sapiens, UniProt P68036); settings: for isoTOP-ABPP reactivity ratio, P68036_C86: 500 μm

- isoTOP-ABPP reactivity ratio, O75362_C286 ([1]; 500 μm, in-vitro_ramos): 0.9
- isoTOP-ABPP reactivity ratio, P16455_C150 [2]: 1.0
- isoTOP-ABPP reactivity ratio, Q9Y3Z3_C522 ([3]; in-vitro_ramos): 0.7
- isoTOP-ABPP reactivity ratio, Q99873_C109 ([4]; in-vitro_ramos): 1.0
- isoTOP-ABPP reactivity ratio, P63244_C182 ([5]; in-vitro_ramos): 0.9
- isoTOP-ABPP reactivity ratio, P40763_C259 [6]: 0.9
- isoTOP-ABPP reactivity ratio, Q96GG9_C115 [7]: 0.8
- isoTOP-ABPP reactivity ratio, Q16822_C306 ([8]; 500 μm, in-vitro_ramos): 1.0
Compound: C=CC(=O)N1CCC(c2noc3ccc(F)cc23)CC1 [compound 37]

- R value (DMSO/fragment) ([1]; 250 μM, in vitro, MDA-MB-231): 1.7
- R value (DMSO/fragment) ([2]; 250 μM, in vitro, Ramos): 6.9
- R value (DMSO/fragment) ([3]; 250 μM, in vitro, MDA-MB-231): 1.5
- R value (DMSO/fragment) ([4]; MDA-MB-231): 1.1
- R value (DMSO/fragment) ([4]; Ramos): 0.2
- R value (DMSO/fragment) ([5]; 250 μM, in vitro, MDA-MB-231): 0.9
- R value (DMSO/fragment) ([6]; MDA-MB-231): 2.0
- R value (DMSO/fragment) ([6]; Ramos): 1.9
- R value (DMSO/fragment) ([9]; 250 μM, in vitro, Ramos): 0.9
- R value (DMSO/fragment) ([10]; 250 μM, in vitro, MDA-MB-231): 1.2
- R value (DMSO/fragment) ([8]; 250 μM, in vitro, MDA-MB-231): 2.2
Compound: COc1ccc(C2CC(c3cccs3)=NN2C(=O)CCl)cc1 (centres unmarked) [compound 4]

- isoTOP-ABPP ratio (reactivity profile), O75362_C286 ([1]; 500 μm in-vitro ramos_231): 0.9
- isoTOP-ABPP ratio (reactivity profile), P16455_C150 ([2]; 500 μm in-vitro ramos): 1.3
- isoTOP-ABPP ratio (reactivity profile), Q9Y3Z3_C522 ([3]; 500 μm in-vitro ramos_231): 1.5
- isoTOP-ABPP ratio (reactivity profile), Q99873_C109 ([4]; 500 μm in-vitro ramos): 0.9
- isoTOP-ABPP ratio (reactivity profile), Q99873_C109 ([4]; 500 μm in-vitro ramos_231): 1.0
- isoTOP-ABPP ratio (reactivity profile), P63244_C182 ([5]; 500 μm in-vitro ramos): 1.2
- isoTOP-ABPP ratio (reactivity profile), P63244_C182 ([5]; 500 μm in-vitro ramos_231): 1.3
- isoTOP-ABPP ratio (reactivity profile), P40763_C259 ([6]; 500 μm in-vitro ramos_231): 1.5
- isoTOP-ABPP ratio (reactivity profile), P15374_C95 ([9]; 500 μm in-vitro ramos): 1.0
- isoTOP-ABPP ratio (reactivity profile), P15374_C95 ([9]; 500 μm in-vitro ramos_231): 0.9
- isoTOP-ABPP ratio (reactivity profile), P68036_C86 ([10]; 500 μm in-vitro ramos): 1.5
- isoTOP-ABPP ratio (reactivity profile), P68036_C86 ([10]; 500 μm in-vitro ramos_231): 0.9
- isoTOP-ABPP ratio (reactivity profile), Q16822_C306 ([8]; 500 μm in-vitro ramos): 0.5
- isoTOP-ABPP ratio (reactivity profile), Q16822_C306 ([8]; 500 μm in-vitro ramos_231): 1.1
Compound: O=C(CCl)N1CCN(CC(=O)N2CCOCC2)CC1 [compound 29]

- isoTOP-ABPP reactivity ratio, P16455_C150 [2]: 1.9
- isoTOP-ABPP reactivity ratio, Q9Y3Z3_C522 ([3]; in-vitro_ramos_231): 0.8
- isoTOP-ABPP reactivity ratio, Q99873_C109 ([4]; in-vitro_ramos): 1.3
- isoTOP-ABPP reactivity ratio, Q99873_C109 ([4]; in-vitro_ramos_231): 0.8
- isoTOP-ABPP reactivity ratio, P63244_C182 ([5]; in-vitro_ramos): 0.6
- isoTOP-ABPP reactivity ratio, P63244_C182 ([5]; in-vitro_ramos_231): 1.0
- isoTOP-ABPP reactivity ratio, P40763_C259 [6]: 1.4
- isoTOP-ABPP reactivity ratio, Q96GG9_C115 [7]: 0.9
- isoTOP-ABPP reactivity ratio, P15374_C95 ([9]; 500 μm, in-vitro_ramos): 0.9
- isoTOP-ABPP reactivity ratio, P68036_C86 ([10]; in-vitro_ramos): 0.9
- isoTOP-ABPP reactivity ratio, P68036_C86 ([10]; in-vitro_ramos_231): 0.8
Compound: C=CC(=O)Nc1cc(C)c(Br)cc1C [compound 40]
